Source: patent US5298491A, “Derivatives of endogenous mediators, their salts, method of preparation, applications and compositions in which they are present” (priority 1990, dated 1994)

Tests used:
[1] = tested on: other receptors which are not of the 5-HT type (such as β-adrenergic receptors); assay: Binding to receptors not of the 5-HT type
5-HT1C sites [2] = assay: Labelling of guinea-pig choroid plexus (autoradiography); assay type: binding; settings: 0.03 nM
Description: (§1) The protocol for preparing the brain sections is common to all the studies which follow. The animals are decapitated after anaesthesia with chloral hydrate (400 mg/kg of gross weight). The brains are quickly removed from the skull and frozen by immersion in isopentane cooled by liquid nitrogen. 20 μm sections, prepared in a cryostat at -20° C., are mounted on gelatin-coated slides and stored at -20° C.
(§2) The sections are preincubated for 1 hour at 4° C. in a Krebs solution (NaCl 118 mM; KCl 4.8 mm; CaCl2 1.2 mM; MgCl2 1.2 mM; Tris-HCl 15 mM, pH 7.4) in order to remove the endogenous ligands.
(§3) The incubations take place for 60 minutes at 20° C. in a Krebs solution containing 10 μM pargyline, 5.7.10^-4 M ascorbic acid, 10 g/l of bovine serum albumin (fraction V, Sigma) and 0.03 nmol/l of the derivative S--CM-[^125 I]--R. The non-specific binding is determined on homothetic sections under the same conditions, but in the presence of 10^-5 M 5-HT.
(§4) After incubation, the sections are rinsed twice for 1 min in distilled water and dried by a stream of hot air. The sections are affixed to a kilm (Amersham) for one week in the presence of standards ([^125 I] microscale, Amersham). The films are developed for 6 min with Kodak D19, rinsed and fixed with AL4 (Kodak). Quantitative analysis of the autoradiographs is performed with an image analysis system (Segu et al., op. cit.).

rat central receptors = assay: Labelling of rat brain sections with iodinated derivatives (autoradiography); settings: 0.03 nM iodinated derivative; non-specific binding with 10^-5 M 5-HT
Description: as §1

5-HT1C sites [3] = assay: Labelling of rat choroid plexus (autoradiography); assay type: binding; settings: 0.03 nM
Description: as §1, §2, §3
(§5) After incubation, the sections are rinsed twice for 1 min in distilled water and dried by a stream of hot air. The sections are affixed to a kilm (Amersham) for one week in the presence of standards ([^125 I] microscale, Amersham). The films are developed for 6 min with Kodak D19, rinsed and fixed with AL4 (Kodak). Quantitative analysis of the autoradiographs is performed with an image analysis system (Segu et al., op. cit.). […]

5-HT1A sites [4] = assay: Labelling of rat hippocampus (autoradiography); assay type: binding; settings: 0.03 nM
Description: as §1, §2, §3, §5

5-HT1D receptors = assay: Labelling of locus niger in postmortem human brain sections (autoradiography); assay type: binding
Description: (§6) The sections are preincubated for 1 h at 4° C. in a Krebs solution (mM: NaCl, 118; KCl, 4.5; CaCl2, 1.2; MgCl2, […]; Tris, 15; pH 7.4) in order to remove the endogenous ligands. They are then incubated at 20° C. for 60 minutes in a solution containing 10^-5 M pargyline, 57 mM ascorbic acid, 10 g/l of bovine serum albumin and 0.02 nM S--CM-G[^125 I]TNH2, alone or in the presence of increasing concentrations of serotonin. Some of the sections are incubated under identical conditions except that the radioactive probe is replaced either with 2 nM [^3 H]5-HT, or with 2 nM [^3 H]5-HT in the presence of 100 nM 8-hydroxy-2-[di-N-propylamino]tetralin (8-OH-DPAT) and 100 nM mesulergin, or with 1 nM [^3 H]8-OH-DPAT. After rinsing 2 x for 1 minute in distilled water, the sections are dried.
(§7) The slides are affixed to a tritium-sensitive film for 8 days. The film is developed for 6 minutes in D19, rinsed and fixed. The autoradiographs are quantified with a video system for image analysis (Segu et al., 1990).
(§8) a) Postmortem human brains are stored at -20° C. 10 μm sections are prepared from blocks containing either the locus niger or the Ammon's horn. The sections are treated as indicated in 4. for the monkey brain sections.
(§9) The locus niger contains virtually exclusively binding sites of the 5-HT1D type, whereas the Ammon's horn is composed predominantly of sites of the 5-HT1A type.

[5] = Distribution of labelling in vivo with a gamma camera after intravenous injection; settings: mice
Description: 2. Study of the distribution of the binding of the derivative S--CM-G[125]TNH2 by visualization in vivo with a gamma camera
The animals (mice) are anaesthetized and injected intravenously with the derivative S--CM-G[^125 I]TNH2. […] In this latter zone, the labelling is retained for 15 to 20 minutes before slowly disappearing.

5-HT1D sites [6] = assay: Labelling of 5-HT1D structures of guinea-pig brain sections (autoradiography); assay type: binding
Description: as §1, §2, §3, §4
In the central nervous system of the guinea-pig, the anatomical structures containing sites of the 5-HT1A type and the pharmacology of these sites are the same as in the rat. By contrast, the pharmacology of the sites contained in the substantia nigra of the guinea-pig is different from that of the sites of the same structure in the rat (Heuring and Peroutka, J. Neurosci., 7, 1987, p. 894-903). These sites are therefore denotedas 5-HT1D.

5-HT1A sites [7] = assay: Labelling of guinea-pig hippocampus (autoradiography); assay type: binding; settings: 0.03 nM
Description: as §1, §2, §3, §5

[8] = Toxicity observed at the injected dose; assay type: in vivo, mice and guinea-pigs
Description: (§10) 2 mice and 2 guinea-pigs are deeply anaesthetized with chloral hydrate (intraperitoneal injection of 0.12 ml of a 35% solution per 100 g of body weight).
(§11) The mice and guinea-pigs receive intracardiac injections of 200 μl and 1.5 ml, respectively, of S--CM-G[^125 I]TNH2.
(§12) After 10 minutes, the animals, still under deep anaesthesia, are decapitated and the brains are frozen and stored as indicated in Example 1.

5-HT1B sites = 5-HT1B sites (Rattus norvegicus, UniProt P28564); assay: Labelling of 5-HT1B structures of rat brain sections (autoradiography); assay type: binding
Sequence of 5-HT1B sites (P28564 whole entry): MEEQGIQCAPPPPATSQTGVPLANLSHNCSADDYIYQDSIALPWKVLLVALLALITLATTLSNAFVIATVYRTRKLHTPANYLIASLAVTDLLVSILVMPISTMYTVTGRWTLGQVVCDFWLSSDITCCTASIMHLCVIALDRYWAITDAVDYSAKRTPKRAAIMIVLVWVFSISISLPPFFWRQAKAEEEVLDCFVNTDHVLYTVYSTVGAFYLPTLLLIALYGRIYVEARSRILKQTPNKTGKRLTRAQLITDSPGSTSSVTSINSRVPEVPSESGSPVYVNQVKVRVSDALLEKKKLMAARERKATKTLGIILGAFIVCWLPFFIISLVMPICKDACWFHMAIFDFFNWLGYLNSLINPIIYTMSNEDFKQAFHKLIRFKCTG
Description: as §1, §2, §3, §4
This last structure is known for containing almost exclusively binding sites of the 5-HT1A type, whereas the others contain sites of the 5-HT1B type (Hoyer et al., Eur. J. Pharmacol., 118, 1985, P. 1-12). In the anterior region, the striatum (ST) is labelled: it contains especially 5-HT1B sites; the choroid plexus (Px), which contains 5-HT1c sites, is not labelled.

5-HT1A sites [9] = assay: Labelling of Ammon's horn in postmortem human brain sections (autoradiography); assay type: binding; settings: treated as monkey sections
Description: as §6, §7, §8, §9

serotonin receptors = assay: Affinity and selectivity for serotonin receptor sites; assay type: binding
[10] = Passage across the blood-brain barrier after intracardiac injection (brain autoradiography); assay type: in vivo, mice and guinea-pigs; settings: 10 minutes; for passage across the blood-brain barrier: intracardiac injection, conclusion
Description: as §10, §11, §12
Sections are prepared and autoradiography is carried out as described in Example 1.

5-HT1D sites [11] = target: T1, 5-HT1D sites (Macaca mulatta, UniProt F6SFA9); assay: Labelling of substantia nigra in monkey brain sections (autoradiography); assay type: binding, monkey (Macacca mulatta n.); settings: for binding to / marker for 5-HT1D sites: conclusion
T1 construct: The right hemisphere is cut out and frozen by isopentane cooled in liquid nitrogen; from tissue; host or cells: rhesus monkey brain sections (right hemisphere, 10 μm, frozen), substantia nigra
T1 sequence (F6SFA9 1-390): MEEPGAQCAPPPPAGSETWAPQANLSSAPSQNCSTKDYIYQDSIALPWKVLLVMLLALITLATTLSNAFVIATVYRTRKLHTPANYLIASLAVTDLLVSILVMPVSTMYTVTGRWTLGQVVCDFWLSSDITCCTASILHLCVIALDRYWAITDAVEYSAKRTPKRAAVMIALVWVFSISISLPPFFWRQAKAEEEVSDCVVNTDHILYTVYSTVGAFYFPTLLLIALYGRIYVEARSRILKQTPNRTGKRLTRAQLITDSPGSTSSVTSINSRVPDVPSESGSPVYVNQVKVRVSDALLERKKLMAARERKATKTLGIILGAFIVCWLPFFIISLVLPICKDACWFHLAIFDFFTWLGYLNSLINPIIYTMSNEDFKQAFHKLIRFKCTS
Description: A male monkey (Macacca mulatta n.) weighing 8 kg was sacrificed by means of an overdose of barbiturates and exsanguination. […] The right hemisphere is cut out and frozen by isopentane cooled in liquid nitrogen. The block is stored at -20° C. […] They are stored at -20° C. until required.
Some of the sections are incubated under identical conditions except that the radioactive probe is replaced either with 2 nM [^3 H]5-HT, or with 2 nM [^3 H]5-HT in the presence of 100 nM 8-hydroxy-2-[di-N-propylamino]tetralin (8-OH-DPAT) and 100 nM mesulergin, or with 1 nM [^3 H]8-OH-DPAT. After rinsing 2 x for 1 minute in distilled water, the sections are dried.
The slides are affixed to a tritium-sensitive film for 8 days. The film is developed for 6 minutes in D19, rinsed and fixed.

What does the source list for `NCCc1c[nH]c2ccc(OCC(=O)NCC(=O)N[C@@H](Cc3ccc(O)c([125I])c3)C(N)=O)cc12` [S--CM-G[^125 I]TNH2]?
selectivity vs receptors not of the 5-HT type [1]: high selectivity without binding to other receptors which are not of the 5-HT type; labelling of the choroid plexus (5-HT1C sites [2]): not labelled; labelling / specific retention on rat brain sections (rat central receptors): retained specifically on rat brain sections; labelling of the choroid plexus (5-HT1C sites [3]): not labelled; labelling of the hippocampus (5-HT1A sites [4]): no labelling; labelling of the hippocampus (5-HT1A sites [4]; listed as S-CM-G[^125 I]TNH2): not labelled; labelling of 5-HT1D receptors of the human brain in vitro (5-HT1D receptors; conclusion): labels the 5-HT1D receptors of the human brain in vitro; labelling of the locus niger (5-HT1D receptors; postmortem, treated as monkey sections): strong labelling; labelling of the vascular system 10 minutes after the injection ([5]; 10 minutes): the labelling decreases in the vascular system, except for the heart and the cerebral vascular system; initial distribution of labelling ([5]; gamma camera): very quickly observed to diffuse into the heart, the entire vascular system and the liver; labelling of the bladder ([5]; longer term): increases in the longer term; labelling of the heart ([5]; longer term): remaining labelled for a fairly long time; labelling of the substantia nigra (5-HT1D sites [6]; 0.03 nM): labels the substantia nigra; labelling of St, SD and SN (5-HT1D sites [6]; FIG. 6, 0.03 nM): labelled; marker for 5-HT1D sites (5-HT1D sites [6]; conclusion): marker for sites with a high affinity for serotonin of the 1D type; labelling of the hippocampus (5-HT1A sites [7]; listed as S--CM-G[^125I]TNH2): not the hippocampus; labelling of the hippocampus (5-HT1A sites [7]; listed as S-CM-G[^125 I]TNH2): not labelled; toxicity [8]: No toxicity was observed; labelling of St, SD and SN (5-HT1B sites; FIG. 5, 0.03 nM): labelled; labelling of the striatum (5-HT1B sites; anterior region, 0.03 nM): labelled; marker specificity for 5-HT1B sites (5-HT1B sites; conclusion): specific marker for binding sites with a high affinity for serotonin of the 1B type; labelling of the substantia nigra and the dorsal subiculum (5-HT1B sites; mesencephalic region, 0.03 nM): intense labelling; labelling of the Ammon's horn (5-HT1A sites [9]): weak labelling; preferential affinity among 5-HT1 sites (serotonin receptors; 5-HT1B and 5-HT1D vs 5-HT1A and 5-HT1C): preferential affinity for the 5-HT1B and 5-HT1D sites compared with the 5-HT1A and 5-HT1C sites; ligand labelling of the 5-HT1D sites (serotonin receptors; compared with other ligands): only ligand to label the 5-HT1D sites; labelling of brain sections after in vivo injection ([10]; intracardiac injection (mice 200 μl, guinea-pigs 1.5 ml)): no labelling; passage across the blood-brain barrier [10]: does not cross the blood-brain barrier; passage across the blood-brain barrier ([10]; listed as S--CM-G[125]TNH2): does not pass through the blood-brain barrier; labelling of the substantia nigra (5-HT1D sites [11]; 0.02 nM S-CM-G[125I]TNH2): virtually exclusive labelling of the substantia nigra; labelling of the substantia nigra (5-HT1D sites [11]; 0.02 nM S-CM-G[125I]TNH2, listed as [^125 I]S-CM-GTNH2): exclusive labelling of the substantia nigra; binding to / marker for 5-HT1D sites (5-HT1D sites [11]): marker for 5-HT1D receptors; binding to / marker for 5-HT1D sites (5-HT1D sites [11]; listed as S--CM-G[^125 I9 TNH2): specific for the 5-HT1D sites; binding to / marker for 5-HT1D sites (5-HT1D sites [11]; listed as S--CM-G[^125 I ]TNH2): binds to the 5-HT1D sites
